Laboratory results taken from patent US10973782B2, “Pharmaceutical composition for improving or preventing progression of chronic kidney disease” (Frimline Private Limited, priority 2017, dated 2021).

Test system: 5/6 Nephrectomy induced chronic kidney disease (CKD)
Experiment: 5/6 Nephrectomy induced chronic kidney disease in rat
Assay type: in vivo, rat (male Wistar)
Details: 5/6 nephrectomy rats, mean; for Serum Analysis BUN / Serum Analysis Creatinine / Serum Analysis IL-6 / Urine Analysis Glomerular Filtration Rate: daily p.o. treatment for 10 weeks, end of 10th week; for % Decreased Creatinine / % Decreased in BUN / % Decreased in IL-6: serum; for % Decreased Creatinine / % Decreased in BUN / % Decreased in IL-6 / % Increased GFR: daily p.o. 10 weeks; for % Increased GFR: urine analysis
Experimental: Screening effect against 5/6 Nephrectomy induced chronic kidney disease (CKD) of synergistic combination or composition/formulation comprising PEA and other natural ingredients in rat. The following trials were carried out:
54 male Wistar rats (Rat Rattus) (6 per group) were maintained in animal house in a light/dark atmosphere based on a 12 hour cycle having temperature and relative humidity in the range of 25±2° C. and 30-70% respectively. To maintain the appropriate conditions, temperature and relative humidity were recorded three times daily. During complete experiment, animals were supplied with the standard certified rat pellet feed (manufactured by Keval sales corporation, Vadodara) and drinking water treated by the reverse osmosis ad libitum.
In order to evaluate the activity against chronic kidney disease, fifty four (54) male rats were screened and divided in to nine groups. For a comparative analysis, groups were divided as sham control (Group 1), disease control (Group 2), treatment groups with individual components (Group 3, Group 4, Group 5 and Group 6 as PEA, Cholecalciferol, Quercetin and Resveratrol respectively), test composition formulation of the present invention (Group 7 and Group 8 as PEA combinations) and reference standard drug (Group 9).
The animals under consideration were examined for a study period of 10 weeks and two-stage surgical procedure for kidney ligation and removal were performed.
Stage one: A ventral midline incision into the abdomen was made to expose the animal's left kidney, and the organ was freed from the surrounding tissue. A piece of suture was placed and ligated around each pole of the kidney at its one-third position. The one-third kidney on each pole was excised beyond the ligatures and the abdominal incision was closed.
Stage two: This procedure was performed 5-7 days after stage one. The animals were placed in ventral recumbancy and an incision was made parallel to the midline. The abdominal cavity was entered and the right kidney was made free from the surrounding tissue. The kidney was gently pulled out from the incision, and the adrenal gland was freed and replaced into the abdominal cavity. The renal blood vessels and the ureter were ligated or cauterized. The kidney was then removed by transecting the vessels and ureter just distal to the ligature or cauterized section. The skin incision was closed with wound clips.
Treatment. All treatment groups were treated on daily basis for 10 weeks after stage two of surgery. After completion of the study at the end of 10th week, each group was analyzed in terms of the evaluating parameters such as blood collection, biochemistry analysis, urine analysis and histopathology of kidney.

| SMILES | Serum Analysis BUN | Serum Analysis Creatinine | Serum Analysis IL-6 | Urine Analysis Glomerular Filtration Rate | % Decreased Creatinine | % Decreased in BUN | % Decreased in IL-6 | % Increased GFR |
| --- | --- | --- | --- | --- | --- | --- | --- | --- |
| Oc1ccc(C=Cc2cc(O)cc(O)c2)cc1 [Resveratrol] | 74.51 mg/dL | 1.41 mg/dL | 174.42 pg/mL | 0.345 L/h/kg | 6.30% | 9.42% | 3.45% | 4.55% |
| C=C1CC[C@H](O)C/C1=C/C=C1\CCC[C@]2(C)[C@@H]([C@H](C)CCCC(C)C)CC[C@@H]12 [Cholecalciferol] | 75.63 mg/dL | 1.40 mg/dL | 178.45 pg/mL | 0.339 L/h/kg | 7.02% | 8.05% | 1.22% | 2.73% |
| CCCCCCCCCCCCCCCC(=O)NCCO [PEA, Palmitoylethanolamide] | 60.98 mg/dL | 1.12 mg/dL | 162.18 pg/mL | 0.39 L/h/kg | 25.63% | 25.87% | 10.22% | 18.18% |
| O=c1c(O)c(-c2ccc(O)c(O)c2)oc2cc(O)cc(O)c12 [Quercetin] | 76.62 mg/dL | 1.44 mg/dL | 175.15 pg/mL | 0.338 L/h/kg | 4.02% | 6.85% | 3.04% | 2.55% |
| CCCCc1nc(Cl)c(CO)n1Cc1ccc(-c2ccccc2-c2nn[nH]n2)cc1 [Losartan] | 52.81 mg/dL | 1.22 mg/dL | 141.67 pg/mL | 0.408 L/h/kg | 18.98% | 35.80% | 21.58% | 23.64% |
